Assay results published in patent US10047036B2, “Method for the synthesis of hydroxy-triglycerides and uses thereof for the prevention and treatment of diseases” (UNIVERSITAT DE LES ILLES BALEARS, priority 2014, dated 2018).

Test system: systolic blood pressure
Assay: systolic blood pressure in spontaneously hypertensive rats
Assay type: in vivo
Conditions: SHR rats; for Δ SP, change in systolic blood pressure: 14 days, 600 mg/kg every 12 hours, basal 216 mmHg; for drops in systolic blood pressure: 14-day treatments with 600 mg/kg
Source text: Metabolic and cardiovascular pathologies are closely related. The overfeeding which characterises our society not only gives rise to problems of obesity and excess weight. It is also linked to the appearance of diabetes, dyslipidaemia, hypertension, strokes, arteriosclerosis, ictus, etc. All of these pathologies increase the risk of premature death and can even cause death. In this sense, certain natural oils show a certain efficacy against this type of pathologies, but their power is limited. In contrast, the molecules of the invention have an important effect against the development of this type of pathologies. To be able to study the effects of the compounds of the invention for the prevention and treatment of metabolic and cardiovascular pathologies, hypertensive rats were used (SHR strain, spontaneously hypertensive rats). These rats present obesity, high blood pressure, dyslipidaemia (hypercholesterolemia and hypertriglyceridemia), diabetes, metabolic syndrome and other related health problems. Hypertensive rats of the SHR strain (spontaneously hypertensive rats) with an approximate weight of 300 grams were treated with TGM1 during 9 days (400 mg/kg, every 12 h, p.o.). Systolic pressure was measured before starting the treatment (basal) and 9 days later. In these animals with a metabolic/cardiovascular pathology, this treatment with TGM1 produced drops in blood pressure of approximately 25 mmHg, while the 14-day treatments with 600 mg/kg of TGM1 induced even greater drops in systolic blood pressure of up to 37 mmHg for TGM1 and up to 52 mmHg for TGM6 (FIG. 4 and Table 3). […] [table]

Compound | Δ SP, change in systolic blood pressure (p.o.) | drops in systolic blood pressure | drops in blood pressure (9 days, 400 mg/kg every 12 h, p.o.)
CCCCCC=CCC=CCC=CCCCC(O)C(=O)OCC(COC(=O)C(O)CCCC=CCC=CCC=CCCCCC)OC(=O)C(O)CCCC=CCC=CCC=CCCCCC (centres unmarked) [TGM3G, 1,2,3-tri(2′-hydroxy-octadec-6′,9′,12′-trienoyl)glycerol] | −21 mmHg |  | 
CCCCCC=CCC=CCCCCCCC(O)C(=O)OCC(COC(=O)C(O)CCCCCCC=CCC=CCCCCC)OC(=O)C(O)CCCCCCC=CCC=CCCCCC (centres unmarked) [TGM2, 1,2,3-tri(2′-hydroxy-octadec-9′,12′-dienoyl)glycerol] | −41 mmHg |  | 
CCC=CCC=CCC=CCC=CCC=CCC=CCC(O)C(=O)OCC(COC(=O)C(O)CC=CCC=CCC=CCC=CCC=CCC=CCC)OC(=O)C(O)CC=CCC=CCC=CCC=CCC=CCC=CCC (centres unmarked) [TGM6, 1,2,3-tri(2′-hydroxy-docosa-4′,7′,10′,13′,16′,19′-hexanoyl)glycerol] | −52 mmHg | up to 52 mmHg | 
CCCCCCCCC=CCCCCCCC(O)C(=O)OCC(COC(=O)C(O)CCCCCCC=CCCCCCCCC)OC(=O)C(O)CCCCCCC=CCCCCCCCC (centres unmarked) [TGM1, 1,2,3-tri(2′-hydroxy-octadec-9′-enoyl)glycerol] | −37 mmHg | up to 37 mmHg | approximately 25 mmHg
CCC=CCC=CCC=CCC=CCC=CCCC(O)C(=O)OCC(COC(=O)C(O)CCC=CCC=CCC=CCC=CCC=CCC)OC(=O)C(O)CCC=CCC=CCC=CCC=CCC=CCC (centres unmarked) [TGM5, 1,2,3-tri(2′-hydroxy-eicosa-5′,8′,11′,14′,17′-pentaenoyl)glycerol] | −40 mmHg |  | 
CCC=CCC=CCC=CCCCCCCC(O)C(=O)OCC(COC(=O)C(O)CCCCCCC=CCC=CCC=CCC)OC(=O)C(O)CCCCCCC=CCC=CCC=CCC (centres unmarked) [TGM3A, 1,2,3-tri(2′-hydroxy-octadec-9′,12′,15′-trienoyl)glycerol] | −28 mmHg |  | 
CCCCCC=CCC=CCC=CCC=CCCC(O)C(=O)OCC(COC(=O)C(O)CCC=CCC=CCC=CCC=CCCCCC)OC(=O)C(O)CCC=CCC=CCC=CCC=CCCCCC (centres unmarked) [TGM4, 1,2,3-tri(2′-hydroxy-eicosa-5′,8′,11′,14′-tetraenoyl)glycerol] | −43 mmHg |  | 
CCCCCC(O)C(=O)OCC(COC(=O)C(O)CCCCC)OC(=O)C(O)CCCCC (centres unmarked) [TGM0, 1,2,3-tri(2′-hydroxyheptanoyl)glycerol] | −8 mmHg |  | 
